From patent US20100130522A1, “COMPOUNDS FOR INFLAMMATION AND IMMUNE-RELATED USES” (Synta Pharmaceuticals Corp., priority 2008, published 2010)

Legend:
CRACM1/STIM1-CHOK1 = target: T1, CRACM1/STIM1-CHOK1 (Homo sapiens, UniProt Q96D31); assay: Patch clamp inhibition of ICRAC current in CRACM1/STIM1-CHOK1 cells; type: cell-based; details: 500 nM; given as activity class
T1 construct: Full length human Stim1, CracM1, CracM2 and CracM3 cDNA; Stim1 induced with doxycycline
Protocol: Manual patch clamp experiments are conducted in the tight-seal whole-cell configuration at room temperature (21-25° C.). Patch pipettes are fashioned from borosilicate glass capillary tubes and have resistances between 2-4 MΩ after filling with standard intracellular solution. High resolution current recordings are acquired with a computer-based patch clamp amplifier system (EPC-10, HEKA, Lambrecht, Germany). All voltages are corrected for a liquid junction potential of 10 mV between external and internal solutions with glutamate as the intracellular anion. Currents are filtered at 2.9 kHz and digitized at 10 μs intervals. Capacitive currents and series resistance are determined and corrected before each voltage ramp using the automatic capacitance compensation of the EPC-10.
Automated patch clamp experiments are conducted with the QPatch 16 (Sophion Bioscience, Ballerup, Denmark) at room temperature (21-25° C.). Immediately following the establishment of giga-seal whole-cell configuration, the cells membrane potential is clamped at 0 mV. Voltage ramps of 50 ms duration spanning the voltage range of −100 to +100 mV are then stimulated at a rate of 0.33 Hz. Currents are filtered at 2.9 kHz and digitized at 200 μs intervals. Capacitive currents and series resistance are determined and corrected before each voltage ramp using the automatic capacitance compensation.
In general, a whole cell patch clamp method is used to examine the effects of a compound of the invention on a channel(s) that mediates ICRAC. In such experiments, a baseline ICRAC measurement is established within the first 70 voltage ramps, or 140 seconds, for a patched cell. Then the cells are perfused with the compound to be tested and the effect of the compound on ICRAC is measured for at least an additional 440 to 500 seconds. A compound that modulates ICRAC (e.g., inhibits) is a compound that is useful in the invention for modulating CRAG ion channel activity.
Off-line analysis with the Heka PatchMaster software is used to separate the ICRAC membrane current from the cells basal background currents. In a typical recording, InsP3 stimulated ICRAC currents begin to develop in 6 to 12 seconds after whole cell is established. Therefore, the first 1-4 voltage ramps represent the basal membrane currents in the absence of ICRAC and the average value is subtracted from all subsequent traces. The current value at −80 mV for each ramp trace is then measured and plotted against time. The resulting current versus time data is exported into a Microsoft Excel spreadsheet. The % ICRAC inhibition in each cell is calculated by comparing the amount of current just prior to the compound perfusion to the amount of current after the cells has been perfused with the compound for 440-500 seconds. The IC50 value and Hill coefficient for each compound is estimated by fitting all the individual data points to a single-site Hill equation.
TREx™-CHO cells were transfected with human Stim1 (recombinant DNA in pcDNA4/TO/myc-His™ A with a myc epitope tag in the N-terminal) and either CracM1, CracM2 or CracM3 (recombinant DNA in pcDNA 3.1 with a HA epitope tag in the N-terminal). Stably expressing cells were selected by growing the transfected cells in antibiotics for two to three weeks. Individual cell clones were isolated via serial dilution. Full length human Stim1, CracM1, CracM2 and CracM3 cDNA, TREx™-CHO cells, pcDNA4/TO/myc-His™ A and pcDNA 3.1 were purchased from Invitrogen (Carlsbad, Calif.). All cells clones are grown in Ham's F-12 media supplemented with 10% fetal bovine serum, penicillin 100 U/ml, streptomycin 100 ? g/ml, Zeocin™ (200 ? g/ml), Geneticin (500 ? g/ml) and blasticidin (10 ? g/ml) in an atmosphere of 95% air/5% CO2. Stim1 expression was induced with doxycycline (1 ? g/ml) for 16-20 hrs. […]

[1] = system: IL-2 production, Jurkat cells; assay: Inhibition of IL-2 production in PHA-activated Jurkat cells (ELISA); type: cell-based; details: Homo sapiens, 1% FBS
Protocol: Jurkat cells were placed in a 96 well plate (0.5 million cells per well in 1% FBS medium), and then a test compound of this invention was added at different concentrations. After 10 minutes, the cells were activated with PHA (final concentration 2.5 μg/mL) and incubated for 20 hours at 37° C. under 5% CO2. The final volume was 200 μL. Following incubation, the cells were centrifuged, and the supernatants collected and stored at −70° C. prior to assaying for IL-2 production. A commercial ELISA kit (IL-2 Eli-pair, Diaclone Research, Besancon, France) was used to detect production of IL-2, from which dose response curves were obtained. The IC50 value was calculated as the concentration at which 50% of maximum IL-2 production after stimulation was inhibited versus a non-stimulation control.

T1 sequence (Q96D31 whole entry): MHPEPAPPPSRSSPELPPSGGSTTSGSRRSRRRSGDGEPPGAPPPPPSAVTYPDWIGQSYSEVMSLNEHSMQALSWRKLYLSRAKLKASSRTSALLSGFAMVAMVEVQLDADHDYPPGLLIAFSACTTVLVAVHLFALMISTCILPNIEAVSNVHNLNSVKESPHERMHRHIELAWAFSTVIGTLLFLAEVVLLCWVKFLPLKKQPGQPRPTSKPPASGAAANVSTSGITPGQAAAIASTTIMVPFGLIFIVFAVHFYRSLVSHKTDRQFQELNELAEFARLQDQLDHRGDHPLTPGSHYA

SMILES | inhibition at 0.5 µM (CRACM1/STIM1-CHOK1) [%] | IC50 ([1]; given as activity class) [nM] | IC50 ([1]; numeric values) [nM]
Cc1ccc(C#Cc2cccnc2)cc1-c1cnc(NC(=O)c2c(F)cccc2F)cn1 [Compound 1, 2,6-difluoro-N-(5-(2-methyl-5-(pyridin-3-ylethynyl)phenyl)-pyrazin-2-yl)benzamide] | 70 to 100 | < 50 | –
Cc1ccc(C#Cc2cccnc2)cc1-c1ccc(NC(=O)c2c(F)cccc2F)cc1 [Compound 2, 2,6-difluoro-N-(2′-methyl-5′-(pyridin-3-ylethynyl)biphenyl-4-yl)benzamide] | 70 to 100 | < 50 | –
Cc1ccc(Nc2ccccn2)cc1-c1ccc(NC(=O)c2c(F)cccc2F)cc1 [Compound 3, 2,6-difluoro-N-(2′-methyl-5′-(pyridin-2-ylamino)biphenyl-4-yl)benzamide] | 50 to 70 | < 50 | –
O=C(Nc1ccc(-c2cc(Oc3ccccn3)ccc2Cl)cc1)c1c(F)cccc1F [Compound 4, N-(2′-chloro-5′-(pyridin-2-yloxy)biphenyl-4-yl)-2,6-difluorobenzamide] | 70 to 100 | < 50 | –
O=C(Nc1ccc(-c2cc(Oc3ccccn3)ccc2Cl)cn1)c1c(F)cccc1F [Compound 5, N-(5-(2-chloro-5-(pyridin-2-yloxy)phenyl)pyridin-2-yl)-2,6-difluorobenzamide] | 70 to 100 | < 50 | –
Cc1ccc(Oc2cccnc2)cc1-c1ccc(NC(=O)c2c(F)cccc2F)cc1 [Compound 6, 2,6-difluoro-N-(2′-methyl-5′-(pyridin-3-yloxy)biphenyl-4-yl)benzamide] | 70 to 100 | < 50 | –
Cc1ccc(Oc2cccnc2)cc1-c1ccc(NC(=O)c2c(F)cccc2F)nc1 [Compound 7, 2,6-difluoro-N-(5-(2-methyl-5-(pyridin-3-yloxy)phenyl)-pyridin-2-yl)benzamide] | 70 to 100 | < 50 | –
Cc1ccc(Oc2cccnc2)cc1-c1cnc(NC(=O)c2c(F)cccc2F)cn1 [Compound 8, 2,6-difluoro-N-(5-(2-methyl-5-(pyridin-3-yloxy)phenyl)-pyrazin-2-yl)benzamide] | 70 to 100 | < 50 | –
Cc1ccc(Oc2ccccn2)cc1-c1ccc(NC(=O)c2c(F)cccc2F)nc1 [Compound 9, 2,6-difluoro-N-(5-(2-methyl-5-(pyridin-2-yloxy)phenyl)-pyridin-2-yl)benzamide] | 70 to 100 | < 50 | –
Cc1cnc(Oc2ccc(Cl)c(-c3ccc(NC(=O)c4c(F)cccc4F)cc3)c2)s1 [Compound 10, N-(2′-chloro-5′-(5-methylthiazol-2-yloxy)biphenyl-4-yl)-2,6-difluorobenzamide] | 70 to 100 | 50 to 100 | –
O=C(Nc1ccc(-c2cc(Oc3nccs3)ccc2Cl)cc1)c1c(F)cccc1F [Compound 11, N-(2′-chloro-5′-(thiazol-2-yloxy)biphenyl-4-yl)-2,6-difluorobenzamide] | 70 to 100 | < 50 | –
O=C(Nc1ccc(-c2cc(Oc3nccs3)ccc2Cl)cn1)c1c(F)cccc1F [Compound 12, N-(5-(2-chloro-5-(thiazol-2-yloxy)phenyl)pyridin-2-yl)-2,6-difluorobenzamide] | 70 to 100 | < 50 | –
Cc1ccc(OCc2ccccn2)cc1-c1ccc(NC(=O)c2c(F)cccc2F)cc1 [Compound 13, 2,6-difluoro-N-(2′-methyl-5′-(pyridin-2-ylmethoxy)-biphenyl-4-yl)benzamide] | 70 to 100 | < 50 | –
Cc1ccc(Cn2ccnc2)cc1-c1ccc(NC(=O)c2c(F)cccc2F)cc1 [Compound 14, N-(5′-((1H-imidazol-1-yl)methyl)-2′-methylbiphenyl-4-yl)-2,6-difluorobenzamide] | 70 to 100 | < 50 | –

Continued, values first:

inhibition at 0.5 µM (CRACM1/STIM1-CHOK1) [%] | IC50 ([1]; given as activity class) [nM] | IC50 ([1]; numeric values) [nM] | SMILES
70 to 100 | < 50 | – | Cc1ccc(CCc2cccnc2)cc1-c1ccc(NC(=O)c2c(F)cccc2F)cc1 [Compound 15, 2,6-difluoro-N-(2′-methyl-5′-(2-(pyridin-3-yl)ethyl)biphenyl-4-yl)benzamide]
50 to 70 | < 50 | – | Cc1ccc(CCc2cccnc2)cc1-c1cnc(NC(=O)c2c(F)cccc2F)cn1 [Compound 16, 2,6-difluoro-N-(5-(2-methyl-5-(2-(pyridin-3-yl)ethyl)phenyl)-pyrazin-2-yl)benzamide]
70 to 100 | 50 to 100 | – | Cc1ccc(CCc2ccccn2)cc1-c1ccc(NC(=O)c2c(F)cccc2F)cc1 [Compound 17, 2,6-difluoro-N-(2′-methyl-5′-(2-(pyridin-2-yl)ethyl)biphenyl-4-yl)benzamide]
50 to 70 | 50 to 100 | – | Cn1cncc1-c1cnc(-c2ccc(Cl)c(-c3ccc(NC(=O)c4c(F)cccc4F)nc3)c2)s1 [Compound 18, N-(5-(2-chloro-5-(5-(1-methyl-1H-imidazol-5-yl)thiazol-2-yl)phenyl)pyridin-2-yl)-2,6-difluorobenzamide]
– | – | 27 | Cc1ccc(Oc2ccccn2)cc1-c1cnc(NC(=O)c2c(F)cccc2F)cn1 [Compound 32, 2,6-difluoro-N-(5-(2-methyl-5-(pyridin-2-yloxy)phenyl)pyrazin-2-yl)benzamide]
– | – | 90 | Cc1ccc(Oc2ccccn2)cc1-c1ccc(NC(=O)c2cccc(F)c2C)nc1 [Compound 33, 3-fluoro-2-methyl-N-(5-(2-methyl-5-(pyridin-2-yloxy)phenyl)pyridin-2-yl)benzamide]
– | – | 14 | Cc1cc(Oc2cccnc2)ncc1-c1ccc(NC(=O)c2cccc(F)c2C)nc1 [Compound 34, 3-fluoro-2-methyl-N-(4′-methyl-6′-(pyridin-3-yloxy)-3,3′-bipyridin-6-yl)benzamide]
– | – | 16 | Cc1ccc(Oc2ccccn2)cc1-c1ccc(NC(=O)c2ccncc2F)nc1 [Compound 35, 3-fluoro-N-(5-(2-methyl-5-(pyridin-2-yloxy)phenyl)pyridin-2-yl)isonicotinamide]
– | – | 16 | O=C(Nc1cnc(-c2cc(Oc3ccccn3)ccc2Cl)cn1)c1c(F)cccc1F [Compound 36, N-(5-(2-chloro-5-(pyridin-2-yloxy)phenyl)pyrazin-2-yl)-2,6-difluorobenzamide]
– | – | 21 | COc1ccc(Oc2ccccn2)cc1-c1ccc(NC(=O)c2cccc(F)c2C)nc1 [Compound 38, 3-fluoro-N-(5-(2-methoxy-5-(pyridin-2-yloxy)phenyl)pyridin-2-yl)-2-methylbenzamide]
– | – | 25 | COc1ccc(Oc2ccccn2)cc1-c1cnc(NC(=O)c2c(F)cccc2F)cn1 [Compound 39, 2,6-difluoro-N-(5-(2-methoxy-5-(pyridin-2-yloxy)phenyl)pyrazin-2-yl)benzamide]
– | – | 39 | Cc1ccc(Oc2ccncc2)cc1-c1ccc(NC(=O)c2cccc(F)c2C)nc1 [Compound 40, 3-fluoro-2-methyl-N-(5-(2-methyl-5-(pyridin-4-yloxy)phenyl)pyridin-2-yl)benzamide]
– | – | 47 | Cc1c(F)cccc1C(=O)Nc1ccc(-c2cc(Oc3cccnc3)ccc2C(F)(F)F)cn1 [Compound 41, 3-fluoro-2-methyl-N-(5-(5-(pyridin-3-yloxy)-2-(trifluoromethyl)phenyl)pyridin-2-yl)benzamide]
